Test results taken from DBAASP.
≈ marks a conversion by molar mass, not a printed value. Where “and” joins values, the source holds several entries; their conditions need not be identical. Equal entries are not always repeated.

Experiments:
Test in all cases: ≥ marks a high value that may be exact or a test limit, other limits are often not marked, values filed in µg/mL are converted to µM
Escherichia coli = system: Escherichia coli
Pseudomonas aeruginosa = system: Pseudomonas aeruginosa
Staphylococcus aureus = system: Staphylococcus aureus
[1] = system: Escherichia coli ATCC 25922
[2] = system: Staphylococcus aureus ATCC 29213
[3] = system: Enterococcus faecalis ATCC 29212
[4] = system: Staphylococcus aureus ATCC 25923
[5] = system: Pseudomonas aeruginosa ATCC 27853

SMILES | MIC (Escherichia coli) [µM] | MIC (Pseudomonas aeruginosa) [µM] | MIC [1] | MIC [2] | other results
CC[C@H](C)[C@H](NC(=O)[C@H](CCCCN)NC(=O)[C@H](CCCCN)NC(=O)[C@@H](NC(=O)[C@@H](NC(=O)[C@H](CCCCN)NC(=O)[C@H](Cc1ccccc1)NC(=O)[C@H](CC(C)C)NC(=O)CN)[C@@H](C)CC)[C@@H](C)CC)C(=O)N[C@@H](Cc1c[nH]c2ccccc12)C(=O)N[C@@H](CCCCN)C(=O)N[C@@H](CO)C(=O)N[C@@H](Cc1ccccc1)C(N)=O [GLFKIIKKIWKSF] |  |  | 3.89 µM and 7.77 µM | 1.94 µM and 3.89 µM | MIC [3]: 15.5 µM and 31.1 µM
CC[C@H](C)[C@H](NC(=O)[C@H](Cc1c[nH]c2ccccc12)NC(=O)CNC(=O)[C@H](CCCCN)NC(=O)CNC(=O)[C@H](Cc1ccccc1)NC(=O)[C@H](Cc1cnc[nH]1)NC(=O)[C@H](C)NC(=O)[C@H](C)NC(=O)[C@H](C)NC(=O)[C@H](CCCCN)NC(=O)CNC(=O)[C@H](Cc1ccccc1)NC(=O)[C@H](CCCCN)NC(=O)[C@H](C)NC(=O)[C@@H](NC(=O)CN)C(C)C)C(=O)N[C@@H](CCCCN)C(=O)N[C@@H](CCC(=O)O)C(=O)N[C@@H](CCSC)C(=O)N[C@@H](CC(C)C)C(=O)N[C@@H](CC(N)=O)C(=O)N[C@@H](CO)C(N)=O [GVAKFGKAAAHFGKGWIKEMLNS] |  |  | > 76 µM | > 76 µM | MIC [5]: > 76 µM
CC[C@H](C)[C@H](N)C(=O)N[C@@H](CC(C)C)C(=O)NCC(=O)N[C@@H](CCCCN)C(=O)N[C@@H](CC(C)C)C(=O)N[C@@H](Cc1c[nH]c2ccccc12)C(=O)N[C@@H](CCC(=O)O)C(=O)NCC(=O)N[C@H](C(=O)N[C@@H](CCCCN)C(=O)N[C@@H](CO)C(=O)N[C@H](C(N)=O)[C@@H](C)CC)C(C)C [ILGKLWEGVKSI] |  | > 25 |  |  | MIC [5]: > 25 µM
CC[C@H](C)[C@H](NC(=O)[C@H](C)NC(=O)CNC(=O)[C@@H](NC(=O)[C@H](CCCCN)NC(=O)[C@H](CCCCN)NC(=O)[C@@H](NC(=O)[C@H](C)NC(=O)CNC(=O)[C@H](Cc1c[nH]c2ccccc12)NC(=O)[C@H](CCCCN)NC(=O)[C@H](CCCCN)NC(=O)[C@@H](NC(=O)[C@H](C)NC(=O)CNC(=O)[C@@H](NC(=O)[C@@H](N)CCCCN)[C@@H](C)CC)[C@@H](C)CC)[C@@H](C)CC)[C@@H](C)CC)C(=O)N[C@@H](CCCCN)C(N)=O [KIGAIKKWGAIKKIGAIK] | > 133 | > 133 |  |  | MIC (Staphylococcus aureus): > 133 µM
CC(C)C[C@H](NC(=O)[C@H](CC(C)C)NC(=O)[C@@H](N)CCCCN)C(=O)N[C@@H](CCCN=C(N)N)C(=O)N[C@@H](CCCCN)C(=O)N[C@@H](CCCCN)C(=O)N[C@@H](Cc1ccccc1)C(=O)N[C@@H](Cc1c[nH]c2ccccc12)C(=O)N[C@@H](Cc1c[nH]c2ccccc12)C(=O)NCC(N)=O [KLLRKKFWWG] | 91.8 (≈ 125 µg/mL) |  |  |  | MIC [4]: 184 µM (≈ 250 µg/mL)
CC[C@H](C)[C@H](NC(=O)[C@H](Cc1ccccc1)NC(=O)[C@H](CO)NC(=O)[C@H](CCCCN)NC(=O)[C@H](Cc1c[nH]c2ccccc12)NC(=O)[C@@H](N)CCCCN)C(=O)N[C@@H](CCCCN)C(=O)N[C@@H](CCCCN)C(=O)N[C@@H](CCCCN)C(=O)N[C@H](C(=O)N[C@@H](CO)C(=O)N[C@@H](CCCCN)C(=O)N[C@@H](Cc1ccccc1)C(=O)N[C@@H](CC(C)C)C(=O)N[C@@H](Cc1cnc[nH]1)C(=O)N[C@@H](CO)C(=O)N[C@@H](C)C(=O)N[C@@H](CCCCN)C(=O)N[C@@H](CCCCN)C(=O)N[C@@H](Cc1ccccc1)C(N)=O)[C@@H](C)O [KWKSFIKKKTSKFLHSAKKF] |  | > 20.3 |  |  | 
CC(=O)N[C@@H](CC(C)C)C(=O)N[C@@H](CCCCN)C(=O)N[C@@H](CCCCN)C(=O)N[C@@H](CC(C)C)C(=O)N[C@@H](CC(C)C)C(=O)N[C@@H](CCCCN)C(=O)N[C@@H](CC(C)C)C(=O)N[C@@H](CC(C)C)C(=O)N[C@@H](CCCCN)C(=O)N[C@@H](CCCCN)C(=O)N[C@@H](CC(C)C)C(=O)N[C@@H](CC(C)C)C(=O)N[C@@H](CCCCN)C(=O)N[C@@H](CC(C)C)C(=O)N[C@@H](C)C(=O)NCC(N)=O [LKKLLKLLKKLLKLAG] |  |  | 20 µM (≈ 37.2 µg/mL) | 20 µM (≈ 37.2 µg/mL) | 
CC(=O)N[C@@H](CC(C)C)C(=O)N[C@@H](CCCCN)C(=O)N[C@@H](CCCCN)C(=O)N[C@@H](CC(C)C)C(=O)N[C@@H](CC(C)C)C(=O)N[C@@H](CCCCN)C(=O)N1CCC[C@H]1C(=O)N[C@@H](CC(C)C)C(=O)N[C@@H](CCCCN)C(=O)N[C@@H](CCCCN)C(=O)N[C@@H](CC(C)C)C(=O)N[C@@H](CC(C)C)C(=O)N[C@@H](CCCCN)C(=O)N[C@@H](CC(C)C)C(N)=O [LKKLLKPLKKLLKL] |  |  | 20 µM (≈ 34.3 µg/mL) | 20 µM (≈ 34.3 µg/mL) | 
CC(=O)N[C@@H](CC(C)C)C(=O)N[C@@H](CCCCN)C(=O)N[C@@H](CCCCN)C(=O)N[C@@H](CC(C)C)C(=O)N[C@@H](CC(C)C)C(=O)N1CCC[C@H]1C(=O)N[C@@H](CC(C)C)C(=O)N[C@@H](CC(C)C)C(=O)N[C@@H](CCCCN)C(=O)N[C@@H](CCCCN)C(=O)N[C@@H](CC(C)C)C(=O)N[C@@H](CC(C)C)C(=O)N[C@@H](CCCCN)C(=O)N[C@@H](CC(C)C)C(N)=O [LKKLLPLLKKLLKL] |  |  | 10 µM (≈ 17 µg/mL) | 2.5 µM (≈ 4.26 µg/mL) | 
CSCC[C@H](NC(=O)[C@H](CCCCN)NC(=O)[C@H](CCCCN)NC(=O)[C@H](CCCCN)NC(=O)[C@H](CCCN=C(N)N)NC(=O)[C@H](CCCN=C(N)N)NC(=O)[C@H](Cc1ccc(O)cc1)NC(=O)[C@@H](N)CCCN=C(N)N)C(=O)N[C@@H](CCCCN)C(=O)N[C@@H](CCCCN)C(N)=O [RYRRKKKMKK] |  |  | > 100 µM |  | MIC [5]: > 100 µM

Further lines, with some results ahead:

MIC (Escherichia coli) [µM] | MIC (Pseudomonas aeruginosa) [µM] | MIC [1] | MIC [2] | SMILES | other results
37.5 (≈ 96 µg/mL) | 75 (≈ 192 µg/mL) |  |  | CC[C@H](C)[C@H](NC(=O)CN)C(=O)NCC(=O)N[C@@H](CCCCN)C(=O)N[C@@H](Cc1ccccc1)C(=O)N[C@H](C(=O)N[C@@H](Cc1cnc[nH]1)C(=O)N[C@@H](CO)C(=O)N[C@@H](C)C(=O)N[C@@H](CCCCN)C(=O)N[C@@H](CCCN=C(N)N)C(=O)N[C@@H](Cc1ccccc1)C(=O)NCC(=O)N[C@@H](CCCN=C(N)N)C(=O)N[C@@H](C)C(=O)N[C@@H](Cc1c[nH]c2ccccc12)C(=O)N[C@H](C(=O)NCC(=O)N[C@@H](CCC(=O)O)C(=O)N[C@H](C(=O)N[C@@H](CCSC)C(=O)N[C@@H](CC(N)=O)C(=O)N[C@@H](CO)C(N)=O)[C@@H](C)CC)C(C)C)[C@@H](C)CC [GIGKFIHSAKRFGRAWVGEIMNS] | MIC (Staphylococcus aureus): > 75 µM
 |  | 10 µM (≈ 11 µg/mL) |  | CC[C@H](C)[C@H](NC(=O)[C@H](CCCN=C(N)N)NC(=O)[C@H](CCCCN)NC(=O)[C@H](CC(C)C)NC(=O)[C@H](CC(C)C)NC(=O)CN)C(=O)N[C@@H](C)C(=O)N[C@H](C(=O)N[C@@H](CC(C)C)C(=O)N[C@@H](CC(C)C)C(N)=O)[C@@H](C)O [GLLKRIATLL] | MIC [4]: 10 µM (≈ 11 µg/mL)
16.6 (≈ 32 µg/mL) | 33.3 (≈ 64 µg/mL) |  |  | CC[C@H](C)[C@H](NC(=O)[C@H](C)NC(=O)[C@H](CCCCN)NC(=O)CNC(=O)[C@@H](NC(=O)[C@H](CCCCN)NC(=O)[C@@H](NC(=O)[C@H](C)NC(=O)[C@H](CCCCN)NC(=O)CNC(=O)[C@H](Cc1c[nH]c2ccccc12)NC(=O)[C@H](CCCCN)NC(=O)[C@@H](NC(=O)[C@H](C)NC(=O)[C@H](CCCCN)NC(=O)CNC(=O)[C@@H](NC(=O)[C@@H](N)CCCCN)[C@@H](C)CC)[C@@H](C)CC)[C@@H](C)CC)[C@@H](C)CC)C(N)=O [KIGKAIKWGKAIKIGKAI] | MIC (Staphylococcus aureus): > 133 µM
 |  | 6 µM (≈ 9.14 µg/mL) |  | CC(C)C[C@H](NC(=O)[C@H](CCCCN)NC(=O)[C@H](CCCCN)NC(=O)[C@H](C)NC(=O)[C@H](CC(C)C)NC(=O)[C@H](CCCCN)NC(=O)[C@H](C)NC(=O)[C@H](CC(C)C)NC(=O)[C@H](CCCCN)NC(=O)[C@H](CCCCN)NC(=O)[C@H](C)NC(=O)[C@H](CC(C)C)NC(=O)[C@@H](N)CCCCN)C(=O)N[C@@H](C)C(N)=O [KLAKKLAKLAKKLA] | MIC [5]: 3 µM (≈ 4.57 µg/mL); MIC [4]: 6 µM (≈ 9.14 µg/mL)
 |  | 96 µM (≈ 125 µg/mL) | 96 µM (≈ 125 µg/mL) | CC(C)[C@H](NC(=O)[C@H](Cc1c[nH]c2ccccc12)NC(=O)[C@H](CCCN=C(N)N)NC(=O)[C@@H](N)CCCN=C(N)N)C(=O)N[C@@H](C)C(=O)N[C@@H](Cc1c[nH]c2ccccc12)C(=O)N[C@@H](CCCN=C(N)N)C(=O)N[C@@H](CC(N)=O)C(=O)N[C@@H](CCCN=C(N)N)C(=O)O [RRWVAWRNR] | 
2.8 (≈ 6.53 µg/mL) |  |  |  | CC[C@H](C)[C@H](NC(=O)[C@H](Cc1c[nH]c2ccccc12)NC(=O)[C@H](CCCCN)NC(=O)[C@@H]1CCCN1C(=O)[C@H](CC(C)C)NC(=O)[C@H](CCCCN)NC(=O)CNC(=O)[C@@H](NC(=O)[C@@H](NC(=O)[C@@H](N)CO)[C@@H](C)O)[C@@H](C)CC)C(=O)N[C@H](C(=O)N[C@@H](CCCCN)C(=O)N[C@H](C(=O)N[C@H](C(=O)N[C@@H](CC(N)=O)C(=O)N[C@@H](CCCCN)C(=O)N[C@@H](Cc1ccccc1)C(=O)N[C@H](C(=O)N[C@@H](CCCCN)C(=O)N[C@@H](CCCCN)C(=O)O)[C@@H](C)O)C(C)C)[C@@H](C)O)[C@@H](C)CC [STIGKLPKWIIKTVNKFTKK] | 
